Where a name gives a salt, the structure may show the parent alone. Read-outs that look alike come from different tables or passages of the source.

We go through five compounds from patent publication US20100092562A1, “SUSTAINED-RELEASE DRUG DELIVERY COMPOSITIONS AND METHODS” (priority 2002, published 2010).

Data set [1] is described as follows: Release profile of base vs salt forms of drugs in liquid controlled release compositions, USP Apparatus 2. It counts as physicochemical. As to conditions: liquid sustained release compositions, 65% W/W sucrose; stored 3 weeks at room temperature.
The conditions of data set [2]: cited from earlier work.
The nature of data set [3]: Effect of sucrose concentration in dispersion medium on albuterol release, USP Apparatus 2. It counts as physicochemical. The note with it: alginate beads, 20% coating; stored 1 week at room temperature. As for the experimental part:
The experiment was carried out with 16 mg of albuterol bound to the alginic acid resin, with 20% coating, and 40%, 50%, 60% or 65% W/W of sucrose in the dispersion medium. First, the alginate beads were loaded with the drug albuterol, where 5% of albuterol and 5% of alginic acid were used. Albuterol and alginic acid powders were placed in a beaker, 100 ml of water was added, and the mixture was stirred until a homogenous gel was formed. Then, 70% microcrystalline cellulose and 20% lactose were placed into a bowl of a low shear mixer and pre-blended with a spatula. Then, the albuterol-alginate gel was incrementally added to the microcrystalline cellulose and lactose blend and mixed to produce a wet mass. Additional 50 ml of water was added to the beaker to wash down its sides and added to the wet mass during its blending, and the resulting wet mass was transferred into a polyethylene bag. Then, the resulting wet mass material was extruded using a dome screen attachment with 0.8 mm screen size at 55 rpm, with the wet mass being gradually added into the extruder. Subsequently, the extrudate was spheronized at 750 rpm for approximately 30 sec, and then dried overnight in a convection oven at 45° C. The beads of appropriate size (material that passed through 16 mesh screens and retained on 20 mesh screens) were selected. […]

For data set [4] the following is noted: sodium alginate 0.877 g/L, 25° C. As for the experimental part: The studies were performed with a two compartment plexiglass dialysis cell (Hollenbeck laboratory) and having a cellulose membrane (molecular weight cutoff of 6000 Daltons) Bel-Art Products (Pequannock, N.J.) placed between the two cell compartments. […] The dialysis cell was shaken at 80 RPM in a thermostatic water bath at 25° C. until equilibrium was reached (30 h). The solution was removed from the drug compartment and the concentrations of free drug and polymer-bound drug measured by high performance liquid chromatography (“HPLC”).

Where [5] appears, read: single IR oral dose of 10 mg HC, 5 male human subjects.
The mark [6] stands for this setting: total drug concentration 4.97 (M × 10^4).
The mark [7] stands for this setting: total drug concentration 5.47 (M × 10^4).
[8] abbreviates: total drug concentration 5.96 (M × 10^4).
Setting [9] is: total drug concentration 6.96 (M × 10^4).
[10] abbreviates: total drug concentration 7.95 (M × 10^4).
[11] abbreviates: total drug concentration 8.95 (M × 10^4).
Where [12] appears, read: total drug concentration 9.94 (M × 10^4).
Where [13] appears, read: total drug concentration 14.91 (M × 10^4).
Where [14] appears, read: total drug concentration 19.88 (M × 10^4).
Setting [15] is: total drug concentration 24.86 (M × 10^4).
Where [16] appears, read: total drug concentration 30.40 (M × 10^4).
The mark [17] stands for this setting: total drug concentration 41.20 (M × 10^4).
The mark [18] stands for this setting: total drug concentration 50.70 (M × 10^4).

For `CN(C)CCC(c1ccc(Cl)cc1)c1ccccn1` (stereo not shown) [chlorpheniramine, 2-pyridinepropanamine, -(4-chlorophenyl)-N,N-dimethyl-, (Z)-2-butenedioate (1:1)], the “rate of release of salt forms vs base forms” value in data set [1] is “comparable”. For the same compound, in data set [2] (in vivo), the “excreted in the feces” value is reported as “Less than 1%”; the “excreted in the urine (metabolism to monodesmethyl and didesmethyl compounds)” value is “up to 26%”; the “renal elimination, share of total excretion” value is “approximately 50%”.

`COc1ccc2c3c1O[C@H]1C(=O)CC[C@H]4[C@@H](C2)N(C)CC[C@]314` (relative stereo) [hydrocodone, morphinan-6-one, 4,5-epoxy-3-methoxy-17-methyl-,(5)-, [R—(R*,R*)]-2,3-dihydroxybutane-dioate (1:1), hydrate (2:5)]: in data set [2] (in vivo), the “elimination half-life of the parent-compound” value was 3.8 to 4.5 h. In addition, in data set [2] (setting [5]), the Tmax result is given as “approximately 1.3±0.3 hours” and the “mean peak serum concentration” value is 23.6 ± 5.2 ng/mL. Besides, the “total excretion occurring in the first 24 hours” value in data set [2] (single oral dose) is recorded as “About 70%”.

In the case of `CC(C)(C)NCC(O)c1ccc(O)c(CO)c1` (stereo not shown) [albuterol], in data set [3], the “release from beads suspended in 50%, 60% and 65% W/W of sucrose vs 40% W/W of sucrose” value is on record as “slower”.

Consider `CN[C@@H](C)[C@@H](O)c1ccccc1` (relative stereo) [pseudoephedrine, benzenemethanol, -[1-(methylamino)ethyl]-, [S—(R*,R*)]-, hydrochloride], for which the “rate of release of salt forms vs base forms” value in data set [1] is on record as “comparable”. Besides, the half-life in data set [2] (affected by urinary pH) is 9 to 16 h. For the same compound, in data set [2] (in vivo), the “dose excreted unchanged in the urine within 24 hours of dosing” value is listed as “up to 90%”. In data set [2] (previously published studies), the Tmax following administration is 1.5 to 2.4 h.

As for `CC(C)NCC(O)COc1cccc2ccccc12.Cl` (stereo not shown) [propranolol, propranolol hydrochloride], the “(l/g), r/(Df)” value in data set [4] (setting [6]) worked out at 4.88 L/g; in data set [4] (setting [7]) it was 3.97 L/g; in data set [4] (setting [8]), 3.60 L/g; in data set [4] (setting [9]) it was 3.21 L/g; in data set [4] (setting [10]) it was 2.49 L/g; in data set [4] (setting [11]) it was 1.71 L/g. Also, the “(l/g), r/(Df)” value in data set [4] (setting [12]) is 1.62 L/g; in data set [4] (setting [13]) it was 1.17 L/g; in data set [4] (setting [14]), 0.87 L/g; in data set [4] (setting [15]) it was 0.60 L/g; in data set [4] (setting [16]), 0.57 L/g; in data set [4] (setting [17]), 0.41 L/g. For the same compound, in data set [4] (setting [18]), the “(l/g), r/(Df)” value was determined as 0.33 L/g. Also, the “Amount bound per gram of polymer” value stood at 4.59 M × 10^4 in data set [4] (setting [6]); 4.84 M × 10^4 in data set [4] (setting [7]); 5.16 M × 10^4 in data set [4] (setting [8]); 5.86 M × 10^4 in data set [4] (setting [9]); 6.23 M × 10^4 in data set [4] (setting [10]); 6.12 M × 10^4 in data set [4] (setting [11]). The “Amount bound per gram of polymer” value is recorded as 6.66 M × 10^4 in data set [4] (setting [12]); 8.61 M × 10^4 in data set [4] (setting [13]); 9.81 M × 10^4 in data set [4] (setting [14]); 10.73 M × 10^4 in data set [4] (setting [15]); 11.49 M × 10^4 in data set [4] (setting [16]); 12.37 M × 10^4 in data set [4] (setting [17]). In data set [4] (setting [18]), the “Amount bound per gram of polymer” value was 12.93 M × 10^4. Further, the Bound drug concentration in data set [4] (setting [6]) was 4.03 M × 10^4; in data set [4] (setting [7]), 4.25 M × 10^4; in data set [4] (setting [8]), 4.53 M × 10^4; in data set [4] (setting [9]), 5.14 M × 10^4; in data set [4] (setting [10]) it was 5.46 M × 10^4; in data set [4] (setting [11]) it was 5.37 M × 10^4. The Bound drug concentration in data set [4] (setting [12]) is reported as 5.83 M × 10^4; in data set [4] (setting [14]), 8.60 M × 10^4; in data set [4] (setting [15]), 9.41 M × 10^4; in data set [4] (setting [16]) it was 10.08 M × 10^4; in data set [4] (setting [17]), 10.84 M × 10^4; in data set [4] (setting [18]) it was 11.34 M × 10^4. Besides, the Free drug concentration in data set [4] (setting [6]) was found to be 0.94 M × 10^4; in data set [4] (setting [7]), 1.22 M × 10^4; in data set [4] (setting [8]), 1.43 M × 10^4; in data set [4] (setting [9]) it was 1.82 M × 10^4; in data set [4] (setting [10]), 2.49 M × 10^4; in data set [4] (setting [11]) it was 3.57 M × 10^4. For the same compound, the Free drug concentration in data set [4] (setting [12]) is 4.10 M × 10^4; in data set [4] (setting [13]), 7.36 M × 10^4; in data set [4] (setting [14]), 11.28 M × 10^4; in data set [4] (setting [15]), 15.45 M × 10^4; in data set [4] (setting [16]) it was 20.32 M × 10^4; in data set [4] (setting [17]), 30.35 M × 10^4. This compound also returned a Free drug concentration in data set [4] (setting [18]) of 39.36 M × 10^4.
